Data taken from patent publication US20020151481A1, “MMP-2 propeptide for use as antiangiogenic or antitumor agent” (priority 2000, published 2002).

Experiment: Viability of cultured chondrosarcoma cells (crystal violet nuclear staining, OD590)
Type: cell-based
Settings: human, human chondrosarcoma cell line; crystal violet OD590 (FIG. 5); concentration not given; read-out: decrease in viable cell number
Protocol: Animal Cell Experiments. The effects of the MMP-2 propeptide on viability and metabolism of cultured animal cells was observed. A human chondrosarcoma cell line was cultured in both the presence and absence of 50 μg/ml recombinant MMP-2 propeptide (serum-free). Cultures were observed over a 48 hours period. Cell viability was monitored via crystal violet nuclear staining and absorption spectroscopy (OD590). Absorbance is proportional to cell number (Gillies, 1986, Anal. Biochem. 159:109-113). […] That MMP-2 had no effect on the cultured cancer cell line was not unexpected since the effects of angiogenesis inhibitors (such as angiostatin and endostatin) are believed to be restricted to […] endothelial cells.

With `COc1cc2c(cc1O)CCN[C@]21CS[C@@H]2c3c(OC(C)=O)c(C)c4c(c3[C@H](COC1=O)N1[C@@H]2[C@H]2c3c(cc(C)c(OC)c3O)C[C@@H]([C@@H]1O)N2C)OCO4` [ET-743] the cytotoxicity at 48 h was 50%.
